Test results published in patent US20130137084A1, “Single Nucleotide Polymorphism on Chromosome 15 That Predicts HCV Treatment Responses” (Roche Molecular Systems, Inc., priority 2011, published 2013).

Tests used:
[1] = test system: chronic Hepatitis C genotype 1 infection; assay: Study NV21075 Phase 2 clinical study, virological response (undetectable HCV RNA) during the first 12 weeks of treatment; assay type: in vivo, human patients; details: for percentage of patients with undetectable HCV RNA levels at the end of 12 weeks of treatment: limit of detection 15 IU/mL, preliminary interim analysis
From the text: Study NV21075 was a randomized double-blinded multicenter Phase 2 clinical study to evaluate the efficacy and safety of danoprevir in combination with peginterferon alfa 2a and ribavirin (triple therapy combination) when dosed for twelve weeks in treatment-naïve patients with chronic Hepatitis C genotype 1 infection as compared to the currently approved combination of peginterferon alfa 2a and ribavirin (Standard of Care or SOC). Patients enrolled in Study NV21075 were randomized into one of four treatment groups (FIG. 1) (approximately 60 patients for Groups A-C, approximately 30 patients for Group D). In the response-guided treatment groups (as described below), patients with an extended RVR (eRVR, defined as undetectable HCV RNA from […]) stopped all therapy at Week 24.
Patients received double blinded experimental treatment with danoprevir at 300 mg TID (Group A), 600 mg BID (Group B), or 900 mg BID (Group C) and standard of care treatment (SOC, Pegasys 180 μg sc qw+Copegus 1000 mg (<75 kg) or 1200 mg (≧75 kg) po qd) for 12 weeks, followed by SOC for 12 weeks. Patients who achieve an RVR, defined as undetectable HCV RNA at week 4, and remain undetectable through week 22 (i.e. achieving eRVR) stopped all treatment at week 24. […] Treatment Group D: Patients received double blinded placebo treatment for 12 weeks, followed by SOC for 36 weeks for a total duration of 48 weeks.
For the interim analysis of NV21075, efficacy during the first 12 weeks of treatment was measured by the percentage of patients with virological response (undetectable HCV RNA as measured by the Roche Cobas® AmpliPrep/Cobas® Taqman® HCV Test v1.0 [limit of detection 15 IU/mL]). Patients were considered non-responders at a scheduled visit if they had missing data, which may have been due to an assessment that was missed or fell outside of the allowable window for that visit, or an early withdrawal from treatment with a missing follow-up assessment.

[2] = test system: HCV; details: RBV monotherapy; cited from earlier work

Structure (SMILES)	percentage of patients with undetectable HCV RNA levels at the end of 12 weeks of treatment ([1]; Treatment Group A: danoprevir 300 mg TID plus SOC) [%]	percentage of patients with undetectable HCV RNA levels at the end of 12 weeks of treatment ([1]; Treatment Group B: danoprevir 600 mg BID plus SOC) [%]	percentage of patients with undetectable HCV RNA levels at the end of 12 weeks of treatment ([1]; Treatment Group C: danoprevir 900 mg BID plus SOC) [%]	change in mean HCV RNA levels ([1]; danoprevir plus SOC, within the first 2 to 4 weeks of treatment, remained lower than SOC up to Week 12)	effect on the replication of HCV [2]
CC(C)(C)OC(=O)N[C@H]1CCCCC/C=C\[C@@H]2C[C@@]2(C(=O)NS(=O)(=O)C2CC2)NC(=O)[C@@H]2C[C@@H](OC(=O)N3Cc4cccc(F)c4C3)CN2C1=O [Danoprevir, 4-Fluoro-1,3-dihydro-isoindole-2-carboxylic acid (Z)-(1S,4R,6S,14S,18R)-14-tert-butoxycarbonylamino-4-cyclopropanesulfonylaminocarbonyl-2,15-dioxo-3,16-diaza-tricyclo[14.3.0.0*4,6*]nonadec-7-en-18-yl ester]	88.1	89.2	92.0	precipitous decline	–
NC(=O)c1ncn([C@@H]2O[C@H](CO)[C@@H](O)[C@H]2O)n1 [ribavirin, 1-((2R,3R,4S,5R)-3,4-Dihydroxy-5-hydroxymethyl-tetrahydro-furan-2-yl)-1H-[1,2,4]triazole-3-carboxylic acid amide]	–	–	–	–	little or no effect
